According to paper PMC9512246, “GAPDH mediates drug resistance and metabolism in Plasmodium falciparum malaria parasites” (PLoS Pathogens, 2022):
“And” between values parts separate entries of the source, which are not always exact repeats. Identical values can stand only once.

Assays:
[1] = biological target: T1, glyceraldehyde 3-phosphate dehydrogenase (PfGAPDH, wild-type) (Plasmodium falciparum, UniProt Q8IKK7); experiment: heme titration by absorption spectroscopy (purified protein); enzyme inhibition also measured, EC50 =[…]; assay type: binding
T1 construct: gene PF3D7_1462800; recombinant PfGAPDH, N-terminal 6x-His tag, N-term and C-term modifications for improved solubility

[2] = biological target: T2, glyceraldehyde 3-phosphate dehydrogenase (PfGAPDH I209T) (Plasmodium falciparum, UniProt Q8IKK7, I209T); experiment: heme titration by absorption spectroscopy (purified protein); assay type: binding
T2 construct: gene PF3D7_1462800; recombinant PfGAPDH, N-terminal 6x-His tag, N-term and C-term modifications for improved solubility

[3] = biological target: Plasmodium falciparum glyceraldehyde 3-phosphate dehydrogenase, wild type (recombinant) (Plasmodium falciparum) (UniProt Q8IKK7); experiment: SEC; analytical size exclusion chromatography; 1mg of purified protein in 1mL of FPLC buffer (100mM Tris-HCl pH 7.5, 1mM MgCl2, 1mM DTT, 10% w/v glycerol); all proteins prepped the same day and dialyzed in the same buffer the night before at 4°C
[4] = biological target: T1, glyceraldehyde 3-phosphate dehydrogenase (PfGAPDH, wild-type); experiment: Michaelis-Menten kinetics of purified enzyme (Abs340, NADH formation); assay type: biochemical
[5] = biological target: Plasmodium falciparum glyceraldehyde 3-phosphate dehydrogenase V238A variant (recombinant) (Plasmodium falciparum) (UniProt Q8IKK7); experiment: SEC; analytical size exclusion chromatography; 1mg of purified protein in 1mL of FPLC buffer (100mM Tris-HCl pH 7.5, 1mM MgCl2, 1mM DTT, 10% w/v glycerol); all proteins prepped the same day and dialyzed in the same buffer the night before at 4°C
[6] = biological target: Plasmodium falciparum glyceraldehyde 3-phosphate dehydrogenase I209T variant (recombinant) (Plasmodium falciparum) (UniProt Q8IKK7); experiment: as above

C=CC1=C(C)C2=Cc3c(C=C)c(C)c4[n]3[Fe][n]3c(c(C)c(CCC(=O)O)c3=CC3=NC(=C4)C(C)=C3CCC(=O)O)=CC1=N2 [heme]
Kd [1]: 740 nM | Kd [2]: 1840 nM

Plasmodium falciparum glyceraldehyde 3-phosphate dehydrogenase, wild type (recombinant) (from UniProt Q8IKK7 4-335) (enzyme)
stoichiometry N [3]: 4

NC(=O)c1ccc[n+]([C@@H]2O[C@H](COP(=O)([O-])OP(=O)(O)OC[C@H]3O[C@@H](n4cnc5c(N)ncnc54)[C@H](O)[C@@H]3O)[C@@H](O)[C@H]2O)c1 [NAD+]
Michaelis-Menten kinetics of purified enzyme (Abs340, NADH formation) [4]: FSM-resistant and wild-type enzymes shared Michaelis-Menten constants for all three substrates NAD+, GAP, and Pi

Plasmodium falciparum glyceraldehyde 3-phosphate dehydrogenase V238A variant (recombinant) (from UniProt Q8IKK7 4-335) (enzyme)
stoichiometry N [5]: 4 and 2

O=C[C@H](O)COP(=O)(O)O [D-glyceraldehyde 3-phosphate]
Michaelis-Menten kinetics of purified enzyme (Abs340, NADH formation) [4]: FSM-resistant and wild-type enzymes shared Michaelis-Menten constants for all three substrates NAD+, GAP, and Pi

Plasmodium falciparum glyceraldehyde 3-phosphate dehydrogenase I209T variant (recombinant) (from UniProt Q8IKK7 4-335) (enzyme)
stoichiometry N [6]: 4 and 2
